The values below come from ChEMBL document CHEMBL5303573, “Mapping human microbiome drug metabolism by gut bacteria and their genes” (Nature, 2019).

Structures are written as SMILES.

Data set [1] in a line: The drug is tested on Eubacterium hallii strain: DSM3353 for biotransformation. The drug concentrations were measured before and after a 12-h incubation by liquid-chromatography-coupled mass spectrometry (LC–MS). The conditions noted are these: anaerobutyricum hallii, 2 µM.
A short description of data set [2]: The drug is tested on Bacteroides coprophilus strain: DSM18228 for biotransformation. The drug concentrations were measured before and after a 12-h incubation by liquid-chromatography-coupled mass spectrometry (LC–MS). The conditions noted are these: 2 µM.
Data set [3] is described as follows: The drug is tested on Bacteroides cellulosilyticus strain: DSM14838 for biotransformation. The drug concentrations were measured before and after a 12-h incubation by liquid-chromatography-coupled mass spectrometry (LC–MS). The conditions noted are these: 2 µM.
Data set [4] in a line: The drug is tested on Blautia hansenii strain: DSM20583 for biotransformation. The drug concentrations were measured before and after a 12-h incubation by liquid-chromatography-coupled mass spectrometry (LC–MS). The conditions noted are these: 2 µM.
For data set [5] the following is noted: bacteroides thetaiotaomicron, 12 h, 2 µM.
Description: The drug is tested on Bacteroides thetaiotaomicron strain: VPI-5482 for biotransformation. The drug concentrations were measured before and after a 12-h incubation by liquid-chromatography-coupled mass spectrometry (LC–MS)
The nature of data set [6]: The drug is tested on Bacteroides vulgatus strain: ATCC8482 for biotransformation. The drug concentrations were measured before and after a 12-h incubation by liquid-chromatography-coupled mass spectrometry (LC–MS). The conditions noted are these: phocaeicola vulgatus, 2 µM.
A short description of data set [7]: The drug is tested on Eubacterium rectale strain: ATCC33656 for biotransformation. The drug concentrations were measured before and after a 12-h incubation by liquid-chromatography-coupled mass spectrometry (LC–MS). The conditions noted are these: agathobacter rectalis, 2 µM.
The conditions of data set [8]: bacteroides thetaiotaomicron, 12 h, 2 µM. This is another data set of the same source.
Description: The drug is tested on Bacteroides thetaiotaomicron strain: 7330 for biotransformation. The drug concentrations were measured before and after a 12-h incubation by liquid-chromatography-coupled mass spectrometry (LC–MS)
A short description of data set [9]: The drug is tested on Bifidobacterium breve strain: DSM20213 for biotransformation. The drug concentrations were measured before and after a 12-h incubation by liquid-chromatography-coupled mass spectrometry (LC–MS). The conditions noted are these: 2 µM.
A short description of data set [10]: The drug is tested on Bacteroides fragilis strain: ATCC43859 for biotransformation. The drug concentrations were measured before and after a 12-h incubation by liquid-chromatography-coupled mass spectrometry (LC–MS). The conditions noted are these: 2 µM.
Data set [11] can be described thus: The drug is tested on Bacteroides fragilis strain: HMW610 for biotransformation. The drug concentrations were measured before and after a 12-h incubation by liquid-chromatography-coupled mass spectrometry (LC–MS). The conditions noted are these: 2 µM.
Data set [12] in a line: The drug is tested on Collinsella aerofaciens strain: ATCC25986 for biotransformation. The drug concentrations were measured before and after a 12-h incubation by liquid-chromatography-coupled mass spectrometry (LC–MS). The conditions noted are these: 2 µM.
A short description of data set [13]: The drug is tested on Clostridium symbiosum strain: ATCC14940 for biotransformation. The drug concentrations were measured before and after a 12-h incubation by liquid-chromatography-coupled mass spectrometry (LC–MS). The conditions noted are these: 2 µM.
The conditions of data set [14]: bacteroides fragilis, 12 h, 2 µM.
Description: The drug is tested on Bacteroides fragilis strain: 3397 (T10) for biotransformation. The drug concentrations were measured before and after a 12-h incubation by liquid-chromatography-coupled mass spectrometry (LC–MS)
Data set [15] is described as follows: The drug is tested on Edwardsiella tarda strain: ATCC23685 for biotransformation. The drug concentrations were measured before and after a 12-h incubation by liquid-chromatography-coupled mass spectrometry (LC–MS). The conditions noted are these: 2 µM.
For data set [16] the following is noted: bacteroides fragilis, 12 h, 2 µM. This is another data set of the same source.
Description: The drug is tested on Bacteroides fragilis strain: DS-208 for biotransformation. The drug concentrations were measured before and after a 12-h incubation by liquid-chromatography-coupled mass spectrometry (LC–MS)
Data set [17] is described as follows: The drug is tested on Clostridium ramosum strain: DSM1402 for biotransformation. The drug concentrations were measured before and after a 12-h incubation by liquid-chromatography-coupled mass spectrometry (LC–MS). The conditions noted are these: thomasclavelia ramosa, 2 µM.
A short description of data set [18]: The drug is tested on Bacteroides xylanisolvens strain: DSM18836 for biotransformation. The drug concentrations were measured before and after a 12-h incubation by liquid-chromatography-coupled mass spectrometry (LC–MS). The conditions noted are these: 2 µM.
Data set [19] in a line: The drug is tested on Clostridium sporogenes strain: ATCC15579 for biotransformation. The drug concentrations were measured before and after a 12-h incubation by liquid-chromatography-coupled mass spectrometry (LC–MS). The conditions noted are these: 2 µM.

Consider `CCCC1O[C@@H]2C[C@H]3[C@@H]4CCC5=CC(=O)C=C[C@]5(C)[C@H]4[C@@H](O)C[C@]3(C)[C@]2(C(=O)CO)O1` (some centres not stated) [BUDESONIDE], for which the “Bacterial Biotransformation” value in data set [1] is reported as “Compound NOT metabolized”; in [2], “Compound NOT metabolized”; in data set [3] it was “Compound NOT metabolized”; in data set [4], “Compound metabolized”; in data set [5], “Compound metabolized”; in data set [6], “Compound metabolized”. Also, the “Bacterial Biotransformation” value is reported as “Compound NOT metabolized” in data set [7]; “Compound NOT metabolized” in data set [8]; “Compound NOT metabolized” in data set [9]; “Compound metabolized” in data set [10]; “Compound metabolized” in data set [11]; “Compound NOT metabolized” in data set [12]. Besides, the “Bacterial Biotransformation” value in data set [13] is “Compound NOT metabolized”; in data set [14] it was “Compound metabolized”; in data set [15], “Compound NOT metabolized”.

Regarding `CCC1(c2ccc(N)cc2)CCC(=O)NC1=O` (configuration not stated) [AMINOGLUTETHIMIDE], the “Bacterial Biotransformation” value in data set [1], in [2], in data set [3], in data set [4], in [6] and in data set [7] was “Compound NOT metabolized” throughout. In addition, the “Bacterial Biotransformation” value in [8], in data set [9], in [16], in data set [17], in data set [11] and in data set [12] was “Compound NOT metabolized” in each case. For the same compound, the “Bacterial Biotransformation” value in [13], in data set [18] and in [15] was “Compound NOT metabolized” in each case.

As to `CN/C(=N/CCSCc1nc[nH]c1C)NC#N` [CIMETIDINE], the “Bacterial Biotransformation” value in [1] was “Compound NOT metabolized”; in data set [3], “Compound NOT metabolized”; in [4], “Compound NOT metabolized”; in data set [5], “Compound metabolized”; in data set [7] it was “Compound NOT metabolized”; in data set [9], “Compound NOT metabolized”. Also, the “Bacterial Biotransformation” value in data set [17] was “Compound NOT metabolized”; in data set [11], “Compound NOT metabolized”; in [12], “Compound NOT metabolized”; in data set [13], “Compound NOT metabolized”; in data set [18], “Compound NOT metabolized”; in [14], “Compound metabolized”. The “Bacterial Biotransformation” value in data set [15] is reported as “Compound NOT metabolized”.

`NC12CC3CC(CC(C3)C1)C2` [AMANTADINE]: the “Bacterial Biotransformation” value in data set [1] was “Compound NOT metabolized”; in data set [2], “Compound NOT metabolized”; in data set [3], “Compound metabolized”; in data set [4], “Compound NOT metabolized”; in [5], “Compound NOT metabolized”; in data set [6], “Compound NOT metabolized”. The “Bacterial Biotransformation” value is given as “Compound NOT metabolized” in [7]; “Compound metabolized” in [8]; “Compound NOT metabolized” in data set [9]; “Compound metabolized” in [16]; “Compound NOT metabolized” in [17]; “Compound NOT metabolized” in data set [11]. For the same compound, the “Bacterial Biotransformation” value in data set [12], in data set [13] and in [15] was “Compound NOT metabolized” in each case.

In the case of `Cc1nc2n(c(=O)c1CCN1CCC(c3noc4cc(F)ccc34)CC1)CCCC2` [RISPERIDONE], the “Bacterial Biotransformation” value in [1] was “Compound metabolized”; in data set [2] it was “Compound NOT metabolized”; in [3], “Compound NOT metabolized”; in data set [4], “Compound metabolized”; in data set [5], “Compound NOT metabolized”; in data set [6], “Compound NOT metabolized”. The “Bacterial Biotransformation” value in [7] is reported as “Compound metabolized”; in data set [8] it was “Compound NOT metabolized”; in data set [9] it was “Compound metabolized”; in [10] it was “Compound metabolized”; in data set [19] it was “Compound metabolized”; in [16], “Compound metabolized”. Moreover, the “Bacterial Biotransformation” value in [11] is “Compound metabolized”; in [12], “Compound NOT metabolized”; in data set [13], “Compound metabolized”; in data set [18], “Compound NOT metabolized”; in [14], “Compound NOT metabolized”; in [15], “Compound NOT metabolized”.

`COC(=O)[C@H](c1ccccc1Cl)N1CCc2sccc2C1.O=S(=O)(O)O` [CLOPIDOGREL BISULFATE]: the “Bacterial Biotransformation” value is listed as “Compound NOT metabolized” in data set [1]; “Compound metabolized” in data set [2]; “Compound NOT metabolized” in data set [3]; “Compound metabolized” in [4]; “Compound metabolized” in data set [5]; “Compound metabolized” in data set [6]. In addition, the “Bacterial Biotransformation” value is given as “Compound metabolized” in data set [8]; “Compound NOT metabolized” in data set [9]; “Compound metabolized” in [10]; “Compound metabolized” in data set [19]; “Compound metabolized” in data set [16]; “Compound metabolized” in data set [11]. The “Bacterial Biotransformation” value in data set [12] is on record as “Compound NOT metabolized”; in [13], “Compound NOT metabolized”; in [18] it was “Compound metabolized”; in [14] it was “Compound metabolized”; in data set [15] it was “Compound NOT metabolized”.

Take `CC(C)(C#N)c1cc(Cn2cncn2)cc(C(C)(C)C#N)c1` [ANASTROZOLE]: the “Bacterial Biotransformation” value in [1] is “Compound NOT metabolized”; in data set [2], “Compound metabolized”; in [3], “Compound NOT metabolized”; in data set [4] it was “Compound metabolized”; in data set [5] it was “Compound metabolized”; in [6], “Compound metabolized”. Besides, the “Bacterial Biotransformation” value was “Compound NOT metabolized” in data set [7]; “Compound metabolized” in data set [8]; “Compound NOT metabolized” in [9]; “Compound metabolized” in data set [19]; “Compound NOT metabolized” in data set [16]; “Compound NOT metabolized” in data set [17]. Besides, the “Bacterial Biotransformation” value in data set [11] was “Compound NOT metabolized”; in [12], “Compound NOT metabolized”; in [13], “Compound NOT metabolized”; in [18] it was “Compound metabolized”; in data set [14], “Compound metabolized”; in data set [15] it was “Compound NOT metabolized”.

As to `CN(C)CCOC(c1ccc(Cl)cc1)c1ccccn1.O=C(O)/C=C\C(=O)O` (configuration not stated) [CARBINOXAMINE MALEATE], the “Bacterial Biotransformation” value in data set [1], in data set [2], in [3], in [4], in data set [5] and in [6] was “Compound NOT metabolized” each time. The “Bacterial Biotransformation” value in [8], in data set [9], in [19], in [16], in [17] and in [12] was “Compound NOT metabolized” throughout. The “Bacterial Biotransformation” value in [13], in data set [18], in data set [14] and in data set [15] was “Compound NOT metabolized” each time.
